According to patent US20240391862A1, “(1,4,5-TRISUBSTITUTED-1H-PYRAZOL-3-YL)OXY-2-ALKOXY ALKYL ACIDS AND THEIR DERIVATIVES, THEIR SALTS AND THEIR USE AS HERBICIDAL AGENTS” (Bayer AKtiengesellschaft, priority 2021, published 2024):

Columns and labels:
VERPE = assay: Pre-emergence herbicidal effect, greenhouse pot test; type: in vivo, Veronica persica; conditions: scored visually after about 3 weeks vs untreated controls
From the text: (§1) Seeds of monocotyledonous and dicotyledonous weed plants and crop plants are placed in plastic or organic planting pots and covered with soil. The compounds of the invention, formulated in the form of wettable powders (WP) or as emulsion concentrates (EC), are then applied to the surface of the covering soil as aqueous suspension or emulsion with addition of 0.5% additive at a water application rate equivalent to 600 l/ha. After the treatment, the pots are placed in a greenhouse and kept under good growth conditions for the trial plants. After about 3 weeks, the effect of the preparations is scored visually in comparison with untreated controls as percentages. For example, 100% activity=the plants have died, 0% activity=like control plants.
(§2) Tables 1a to 19c below show the effects/crop compatibilities of selected compounds of the general formula (I) on various harmful plants at an application rate corresponding to 20 to 320 g/ha, which were obtained by the trial procedure specified above.
(§3) • ALOMY: Alopecurus myosuroides SETVI: Setaria viridis • AVEFA: Avena fatua POLCO: Fallopia convolvulus • AMARE: Amaranthus retroflexus ECHCG: Echinochloa crus-galli • LOLRJ: Lolium rigidum STEME: Stellaria media • VERPE: Veronica persica MATIN: Tripleurospermum inodorum • DIGSA: Digitaria sanguinalis ABUTH: Abutylon threophrasti • TRZAS: Triticum aestivum VIOTR: Viola tricolor • BRSNW: Brassica napus ZEAMX: Zea mays • PHBPU: Ipomoea purpurea GLXMA: Glycine max • ORYSA: Oryza sativa HORMU: Hordeum murinum

various unwanted plants = assay: Post-emergence effect against various unwanted plants (PO): comparative test of I-01 with compounds from WO2020/245044 (Tables 41a, 41b) and summary statements; type: in vivo; conditions: for Post-emergence effect, Effect %, ALOMY / Post-emergence effect, Effect %, AVEFA / Post-emergence effect, Effect %, ECHCG / Post-emergence effect, Effect %, LOLRI / Post-emergence effect, Effect %, SETVI: comparative test
Experimental: Seeds of monocotyledonous and dicotyledonous weeds and crop plants are placed in sandy loam in plastic or organic planting pots, covered with soil and cultivated in a greenhouse under controlled growth conditions. 2 to 3 weeks after sowing, the trial plants are treated at the one-leaf stage. The compounds of the invention, formulated in the form of wettable powders (WP) or as emulsion concentrates (EC), are then sprayed onto the green parts of the plants as aqueous suspension or emulsion with addition of 0.5% additive at a water application rate of 600 l/ha (converted). After the test plants have been kept in the greenhouse under optimum growth conditions for about 3 weeks, the activity of the preparations is rated visually in comparison to untreated controls. For example, 100% activity=the plants have died, 0% activity=like control plants. […] Tables 41a and 41b below show the effects of the inventive compound (I-01) with structurally similar compounds (WO2020/245044) on various harmful plants at an application rate corresponding to 320 g/ha or less, which have been obtained by the trial procedure specified hereinafter. The inventive compound (I-01) differs here by variance of a significant structural feature from the structurally similar compound with regard to the R^2 radical. Seeds of monocotyledonous and dicotyledonous weeds and crop plants are placed in sandy loam in plastic or organic planting pots, covered with soil and cultivated in a greenhouse under controlled growth conditions. 2 to 3 weeks after sowing, the trial plants are treated at the one-leaf stage. The compounds of the invention, formulated in the form of wettable powders (WP) or as emulsion concentrates (EC), are then sprayed onto the green parts of the plants as aqueous suspension or emulsion with addition of 0.5% additive at a water application rate of 600 l/ha (converted). After the test plants have been kept in the greenhouse under optimum growth conditions for about 3 weeks, the activity of the preparations is rated visually in comparison to untreated controls. For example, 100% activity=the plants have died, 0% activity=like control plants. Effects/crop compatibilities of selected compounds (see Table 39) on various harmful plants at an application rate corresponding to 80 to 320 g/ha that have been obtained by the trial procedure specified hereinafter are shown in Tables 41a and 41b below.

ABUTH [1] = assay: Post-emergence herbicidal effect, greenhouse pot test; type: in vivo, Abutilon theophrasti; conditions: Abutilon theophrasti, 504 h, visual rating about 3 weeks after treatment, read-out: Post-emergence effect against ABUTH
Procedure, shortened: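 Sandy loam pots, greenhouse. One-leaf stage (2–3 wk after sowing) foliar spray; WP/EC in water + 0.5% additive, 600 l/ha; 20–320 g/ha. Visual score ~3 wk, 0–100% vs untreated.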

ABUTH [2] = assay: Pre-emergence herbicidal effect, greenhouse pot test; type: in vivo, Abutilon theophrasti; conditions: 320 g/ha, scored visually after about 3 weeks vs untreated controls
From the text: as §1, §2, §3

PHBPU = assay: as above; type: in vivo, Ipomoea purpurea; conditions: scored visually after about 3 weeks vs untreated controls
From the text: as §1, §2, §3

AVEFA = assay: as above; type: in vivo, Avena fatua; conditions: 320 g/ha, scored visually after about 3 weeks vs untreated controls
From the text: as §1, §2, §3

VIOTR = assay: as above; type: in vivo, Viola tricolor; conditions: scored visually after about 3 weeks vs untreated controls
From the text: as §1, §2, §3

DIGSA = assay: as above; type: in vivo, Digitaria sanguinalis; conditions: 320 g/ha, scored visually after about 3 weeks vs untreated controls
From the text: as §1, §2, §3

ZEAMX = assay: Post-emergence herbicidal effect and crop plant compatibility, greenhouse pot test; type: in vivo, Zea mays; conditions: Zea mays, 504 h, 80 g/ha, one-leaf stage, rated visually after about 3 weeks vs untreated controls, read-out: Post-emergence effect at 80 g/ha against ZEAMX in %
Procedure, shortened: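 Visual % activity scored roughly 3 weeks post-spray against untreated plants, where 100% means death and 0% equals control. Plants were treated at the one-leaf stage, 2 to 3 weeks after sowing in sandy loam, at 20 to 320 g/ha.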

**Q.** With CCOC(=O)C(OCC)Oc1nn(-c2ccccc2F)c(-c2ccc(F)nc2)c1Br (racemic) [Example I-01, Ethyl (2RS)-{[4-bromo-1-(2-fluorophenyl)-5-(6-fluoropyridin-3-yl)-1H-pyrazol-3-yl]oxy}(ethoxy)acetate] as the molecule, how does the “Pre-emergence effect at 320 g/ha against VERPE in %” value (VERPE) read?
**A.** 80%

**Q.** And the “Post-emergence effect, Effect %, ALOMY” value (various unwanted plants; 80 g/ha)?
**A.** 90%

**Q.** And the “Post-emergence effect, Effect %, ALOMY” value (various unwanted plants; 320 g/ha)?
**A.** 100%

**Q.** And the “Post-emergence effect, Effect %, AVEFA” value (various unwanted plants; 80 g/ha)?
**A.** 90%

**Q.** And the “Post-emergence effect, Effect %, AVEFA” value (various unwanted plants; 320 g/ha)?
**A.** 90%

**Q.** And the “Post-emergence effect, Effect %, ECHCG” value (various unwanted plants; 80 g/ha)?
**A.** 90%

**Q.** And the “Post-emergence effect, Effect %, ECHCG” value (various unwanted plants; 320 g/ha)?
**A.** 90%

**Q.** And the “Post-emergence effect, Effect %, LOLRI” value (various unwanted plants; 80 g/ha)?
**A.** 70%

**Q.** What about the “Post-emergence effect, Effect %, LOLRI” value (various unwanted plants; 320 g/ha) of the same molecule?
**A.** 90%

**Q.** And the “Post-emergence effect, Effect %, SETVI” value (various unwanted plants; 80 g/ha)?
**A.** 90%

**Q.** And the “Post-emergence effect, Effect %, SETVI” value (various unwanted plants; 320 g/ha)?
**A.** 90%

**Q.** And the “herbicidal efficacy by comparison to the structurally similar compounds (Tables 41a and 41b)” value (various unwanted plants; different harmful plants, 320 g or less per hectare, vs compounds from WO2020/245044)?
**A.** distinctly improved herbicidal efficacy

**Q.** And the pest or weed control at 80 g/ha (ABUTH [1]; 80 g/ha)?
**A.** 80%

**Q.** What about the pest or weed control at 320 g/ha (ABUTH [1]) of the same molecule?
**A.** 90%

**Q.** With COC(=O)C(OC)Oc1nn(-c2ccccc2F)c(-c2ccc(F)nc2)c1Br (racemic) [Example I-04, Methyl (2RS)-{[4-bromo-1-(2-fluorophenyl)-5-(6-fluoropyridin-3-yl)-1H-pyrazol-3-yl]oxy}(methoxy)acetate] as the molecule, how does the “Pre-emergence effect at 320 g/ha against ABUTH in %” value (ABUTH [2]) read?
**A.** 80%

**Q.** And the “Pre-emergence effect at 320 g/ha against VERPE in %” value (VERPE)?
**A.** 90%

**Q.** What about the “Pre-emergence effect at 80 g/ha against PHBPU in %” value (PHBPU; 80 g/ha) of the same molecule?
**A.** 80%

**Q.** And the “Pre-emergence effect at 320 g/ha against PHBPU in %” value (PHBPU)?
**A.** 90%

**Q.** And the “Pre-emergence effect at 320 g/ha against AVEFA in %” value (AVEFA)?
**A.** 80%

**Q.** What about the pest or weed control at 320 g/ha (ABUTH [1]) of the same molecule?
**A.** 80%

**Q.** What about the “Pre-emergence effect at 80 g/ha against VIOTR in %” value (VIOTR; 80 g/ha) of the same molecule?
**A.** 80%

**Q.** And the “Pre-emergence effect at 320 g/ha against VIOTR in %” value (VIOTR)?
**A.** 100%

**Q.** What does the source list for COC(=O)C(OC)Oc1nn(-c2ncccc2F)c(-c2ccc(F)nc2)c1Br (stereo not drawn) [Example I-05]?
**A.** Pre-emergence effect at 320 g/ha against DIGSA in % (DIGSA): 90%; plant injury at 80 g/ha (ZEAMX): 20%; Pre-emergence effect at 320 g/ha against PHBPU in % (PHBPU): 80%; Pre-emergence effect at 320 g/ha against AVEFA in % (AVEFA): 90%; Pre-emergence effect at 320 g/ha against VIOTR in % (VIOTR): 100%
